The text below walks through data of PubChem BioAssay AID179 (DTP/NCI, 2004).

One may read the EC50 as the concentration giving half of the maximal effect. By IC50 is commonly meant the concentration needed to halve the response being measured. A higher IC50 goes with weaker potency.

Where “and” joins values, the source holds several entries; their conditions need not be identical. Equal values may be shown once. Calls of active or inactive are those of the source.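 Rule for the calls: active = compounds giving half or more protection of infected cells from virus-caused growth loss, again on retest; inactive = the rest.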 Where a SMILES comes first, the peptide text is derived from it.

The experiment has as its system CEM cells HIV-1 protection, formazan growth assay. The experiment in a line: NCI AIDS Antiviral Assay. To be noted: for IC50: measured here: growth of uninfected CEM cells. In short, it runs like this: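 Category rules: moderately active means at least 50% protection on retest, and confirmed active means 100% protection reproducibly. The underlying data came from a formazan growth assay in HIV-1-infected CEM cells.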

On to `COc1cccc(CC2C(=O)NC(=O)NC2=O)c1`, for which the EC50 is > 200 µM and the IC50 is > 200 µM.
For the compound `O=c1cc(NCc2ccncc2)[nH]c(=O)[nH]1`, the result was inactive.
On the same count and under the same terms, then `CC(=O)O[C@H]1CC[C@@]2(C)C(=CC[C@@H]3C2CC[C@]2(C)Nc4[nH]ncc4CC32)C1` (some centres not stated), with “inactive”.
As for `Cn1c(C(O)C2(c3cccnc3)SCCCS2)cc2ccccc21` (configuration not stated), the EC50 was > 200 µM and the IC50 stood at 75.9 µM.
For `N#Cc1cccc(C2SCc3nc4ccccc4n32)c1` (configuration not stated), in that order: 19.5 µM and 60.3 µM.
For `COc1ccc(-c2nc(-c3cnccn3)n(Cc3ccccc3)n2)cc1`, in that order: 83.2 µM and > 200 µM.
As for `CC(C)c1cccc(C(C)C)c1N1C(=O)C(=O)C(c2nc3ccccc3o2)C(=O)C1=O`, the outcome was inactive.
Regarding `COC(=O)C12OC3CO[Si](C(C)C)(C(C)C)O[Si](C(C)C)(C(C)C)OC3C1Oc1nc(=O)ccn12` (configuration not stated), the EC50 was > 200 µM and the IC50 was 35.5 µM.
The matching figures for `Oc1ccc2ccccc2c1OCc1nnc(CCCCCCCCc2nnc(COc3c(O)ccc4ccccc34)o2)o1`: > 200 µM and 47.9 µM.
For `O=C(OC[C@]12OC1C=C[C@H](OC(=O)c1ccccc1)C2O)c1ccccc1` (some centres not stated), in that order: > 24.5 µM and 23.4 µM.
With `COC(=O)C12OC(C)(C(CC(=O)OC(C)(C)C)C1=O)C1C(=O)N(c3ccccc3)C(=O)C12` (configuration not stated), the EC50 was > 200 µM and the concentration for half-maximal inhibition (IC50) is > 200 µM.
On to `Cc1ccc(-c2sc(-c3ccc(C)cc3)c3c2C2CCC3C2)cc1`, for which the EC50 is > 200 µM and the IC50 was > 200 µM.
As for `O=c1nc2n(c3ncccc13)CC=NN2`, the EC50 is > 200 µM and the IC50 is > 200 µM.
As to `CCCCCCCCOC(CO)CO`, the EC50 is > 251 µM and the IC50 is > 251 µM.
As to `NC(CSSCC(N)C(=O)c1ccccc1)C(=O)c1ccccc1` (configuration not stated), the EC50 was > 200 µM and the IC50 came out at 9.77 µM.
The matching figures for `CC1(C)CC23CC(C)(C)c4cccc(c42)OCc2ccc4ccc5ccc(nc5c4n2)COc2cccc1c23`: > 50.1 µM and > 50.1 µM.
In the case of `COc1cc2ccnc3c2c(c1OC)-c1coc(SC)c1-3`, the result was inactive.
Turning to `Cc1ccc2nc(C(=O)O)c(=O)[nH]c2c1`, the result was inactive.
Take `COc1ccc(-n2cnn3c(=O)c4cn[nH]c4nc23)cc1`: the EC50 was > 200 µM and the IC50 is > 200 µM.
With `COc1cc([C@@H]2c3cc4c(cc3[C@H](O)[C@H]3COC(=O)[C@H]23)OCO4)cc(OC)c1OC`, the EC50 was > 2.29 µM and the IC50 was found to be 0.00479 µM.
Consider `C/C(=N/NC(=O)c1ccccc1O)c1ccc(/C(C)=N\NC(=O)c2ccccc2O)c2nc3cc(C)c(C)cc3nc12`, for which the EC50 is > 64.6 µM and the IC50 was > 64.6 µM.
As to `COC(=O)c1csc(-c2csc(CCNC(=O)OC(C)(C)C)n2)n1`, the EC50 is > 355 µM and the IC50 is 60.3 µM.
Consider `COc1ccc(C2=[N+]([O-])c3ccccc3C2=O)cc1`, for which the result was inactive.
For `Nc1cc2[nH]c(=O)c(=O)[nH]c2cc1N`, the EC50 was > 200 µM and the IC50 was determined as 63.1 µM.
The matching figures for `O=Nc1c[nH]c(=O)[nH]c1=O`: > 200 µM and > 200 µM.
The matching figures for `[N-]=[N+]=CC(=O)CCC(=O)N(c1ccccc1)c1ccccc1`: 135 µM and 195 µM.
Turning to `CCCc1ccc(OC2OC(CO)C(O)C(O)C2O)cc1` (configuration not stated), the EC50 was > 302 µM; the IC50 was > 302 µM and 85.1 µM.
As to `COc1ccccc1/C=C/c1ccnc2ccccc12`, the EC50 was > 200 µM and the IC50 was 32.4 µM.
With `O=C1[C@H](Cl)[C@H]2c3cc4ccccc4nc3Oc3ccccc3N12`, the EC50 was > 22.4 µM and the IC50 is > 22.4 µM.
With `COc1ccc2c(N=[N+]=[N-])c(-c3ccccc3)c(=O)oc2c1`, the result was inactive.
With `CCOC(=O)c1nnsc1NC(=O)NCCCCCCn1c(=O)n(CCCCCCNC(=O)Nc2snnc2C(=O)OCC)c(=O)n(CCCCCCNC(=O)Nc2snnc2C(=O)OCC)c1=O`, the EC50 was > 200 µM and the IC50 was > 200 µM.
Consider `CO/C=C/c1ccc2c(c1)OCO2`, for which the outcome was inactive.
For `CC1=CC(=O)/C(=C/N2CCNC2=S)C(=O)O1`, the EC50 was > 200 µM and the IC50 is > 200 µM.
For `Cc1cccc(C)c1NC(=O)CCC(=O)NNC(=O)c1cc(O)c2ccccc2c1`, the EC50 is > 234 µM and the IC50 is 33.9 µM.
As for `CCC12C[N+]3([O-])CCc4c([nH]c5ccccc45)C(C(=O)OC)(c4cc5c(cc4OC)N(C)C4C(O)(C(=O)OC)C(OC(C)=O)C6(CC)C=CCN7CCC54C76)CC(C3)C1O2` (configuration not stated), the result was inactive.
In the case of `Cc1cc(NS(=O)(=O)c2ccc(Nc3c4ccccc4nc4c(C(=O)NCCN(C)C)cccc34)cc2)no1`, the result was inactive.
Consider `Nc1c2c(nc3ccccc13)CCCC2` (tested in a mixture with another compound), for which the EC50 was > 4170 µM; the IC50 was 25.7 µM and 39.8 µM.
`Cc1ccnc2[nH]c3ccccc3c(=O)c12`: the EC50 was > 200 µM and the IC50 is 14.5 µM.
As to `CC1(C)COC2C(N(Cc3ccccc3)Cc3ccccc3)C(=O)N21` (configuration not stated), the outcome was inactive.
Take `NC(=S)N/N=C/c1ccc(O)cn1`: the EC50 was > 661 µM and the IC50 amounted to 1.12 µM.
As to `CC1NC(=O)CNC(=O)CNC(=O)C(Cc2ccc(O)cc2)NC(=O)C(C(C)C)NC(=O)C(C)NC1=O` (configuration not stated) (cyclo(GGAAVY); configuration not given here), the result was inactive.
Same read-out and setting: for `O=c1oc2cc(O)ccc2c(O)c1C(c1ccc2ccccc2c1)c1c(O)c2ccc(O)cc2oc1=O` the value was “inactive”.
Take `N#Cc1ccc(/C=C2\Cc3ccccc3C2=O)cc1`: the EC50 is > 200 µM and the IC50 was > 200 µM.
In the case of `C=CCCCN1C(=O)CCC1=O`, the outcome was inactive.
In the case of `O=c1c(Cc2ccccc2)c(-c2ccccc2)[nH]n1C1=NCCN1`, the EC50 was > 200 µM and the IC50 turned out to be 19.1 µM.
Take `CCN(CC)C1CC(O[C@H]2C[C@](O)(C(=O)CO)Cc3c(O)c4c(c(O)c32)C(=O)c2c(OC)cccc2C4=O)OC(C)C1O` (some centres not stated): the outcome was inactive.
As for `COc1ccc(NC(=O)c2c(NC(C)=O)c(C#N)c3n2CCC3)cc1`, the EC50 was > 200 µM and the IC50 is > 200 µM.
`Cc1nc2c(=O)[nH]c(=O)n(C)c2[nH]c1=O`: the EC50 was > 34.7 µM and the IC50 was > 34.7 µM.
As for `O=c1ccc(=O)n(-c2ccc(Cl)cc2)[nH]1`, the EC50 was > 162 µM and the IC50 was > 162 µM.
On to `c1ccc(-c2cc(Nc3ccc4c(c3)OCO4)c3cc(C4CCCCC4)ccc3n2)cc1`, for which the result was inactive.
Turning to `CSc1nc(Br)nc2c1ncn2C1CC(Oc2ccc(C)cc2)C(COc2ccc(C)cc2)O1` (configuration not stated), the EC50 was > 200 µM and the IC50 was 79.4 µM.
The matching figures for `CCOC(=O)N1CCN(P(=O)(Nc2ccc3nc(NC(=O)OC)[nH]c3c2)Oc2ccccc2)CC1` (configuration not stated): > 135 µM and 53.7 µM.
For `CCOC(=O)C1CC(O)C(=O)N1C` (configuration not stated), the outcome was inactive.
As to `O=C(c1ccccc1)C(c1ccccc1)C1(O)C(=O)Nc2ccc([N+](=O)[O-])cc21` (configuration not stated), the EC50 was > 25.7 µM and the IC50 was > 25.7 µM.
Turning to `CC1(C)COC1(c1ccccc1)c1cccnc1` (configuration not stated), the EC50 is > 200 µM and the IC50 was determined as 148 µM.
The matching figures for `N#Cc1ccc(Oc2cccc(Oc3ccccc3)c2)cc1C#N`: > 43.7 µM and > 43.7 µM.
For the compound `CNC(=O)[C@@H](C)C1C(=O)/C(=C(O)\C=C\C(C)C)C(=O)N1C1CCC(O)C(C)O1` (some centres not stated), the result was inactive.
In the case of `CC[N+]1(C)CCC(O)(/C=C/c2ccc(Cl)cc2)C(C(=O)/C=C/c2ccc(Cl)cc2)C1` (configuration not stated), the EC50 was > 20 µM and the IC50 is 2.95 µM.
For `COc1ccc(/C=C(\C)C=C(C#N)C#N)cc1`, in that order: > 44.7 µM and 34.7 µM.
For `N#CSCc1cccc(Nc2cc(=O)[nH]c(=O)[nH]2)c1`, in that order: > 200 µM and 25.7 µM.
Turning to `COc1cc(/C=N\NS(=O)(=O)c2ccc(N)cc2)ccc1O`, the EC50 was > 295 µM and the IC50 came out at 209 µM.
Take `COC(=O)C[P+](c1ccccc1)(c1ccccc1)c1ccccc1`: the EC50 is > 200 µM and the IC50 is > 200 µM.
As for `c1ccc(SC2(Sc3ccccc3)CCCCCCCCCCC2)cc1`, the EC50 was > 200 µM and the 50% inhibitory concentration (IC50) was 166 µM.
For `C=CC(C)(C)c1c(OC(C)=O)cc2oc3c(OC(C)=O)c(OC(C)=O)cc(CC=C(C)C)c3c(=O)c2c1O`, in that order: > 200 µM and 120 µM.
For `O=C(Cc1ccccc1)NN1C(=O)/C(=C\c2ccc([N+](=O)[O-])cc2)SC1=Nc1ccccc1`, in that order: > 56.2 µM and > 56.2 µM.
The matching figures for `CC(=O)C(=[N+]=[N-])C(=O)OC(C)(C)C#N`: > 200 µM and > 200 µM.
Consider `Nc1nc(O)c2ncn([C@H]3CC[C@@H](CO)O3)c2n1`, for which the EC50 was 1.74 µM and the IC50 is > 200 µM.
As to `CC(=O)O[C@@]1(C)C[C@@H](O)[C@]2(O)C=CO[C@@H](OC3OC(CO)C(O)C(O)C3O)[C@@H]21` (some centres not stated), the result was inactive.
For `O=C(O)CN(CCOCCOCCN(CC(=O)O)CC(=O)O)CC(=O)O`, the EC50 is > 95.5 µM and the IC50 worked out at 3.02 µM.
The matching figures for `COC(=O)Oc1nn(C(=O)OC)c(=O)c2ccccc12`: > 200 µM and > 200 µM.
In the case of `COC(CNC(=O)NC(=O)CCC(=O)O)[CH2][Hg][n]1cnc2c1c(=O)n(C)c(=O)n2C` (configuration not stated), the EC50 is > 200 µM and the half-maximal inhibitory concentration (IC50) was 85.1 µM.
Take `N=C(N)c1ccc(N=Nc2ccc(N)cc2N)cc1`: the EC50 is > 200 µM and the IC50 was 51.3 µM.
The matching figures for `CC1=CCC(Br)C(C)(C)C12CCC(C)(Cl)C(Br)C2` (configuration not stated): > 200 µM and 29.5 µM.
